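Method: 48-hour compound exposure of cells in 96-well plates, five concentrations, linear interpolation of endpoints. GI50 marks 50% less growth.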 Calls of active or inactive are those of the source. Rule as the data show it: active = GI50 up to about 1.1 µM and inactive = higher.
Key:
Experiment in all cases: inhibition of tumour cell growth, NCI panel, 48 h
SK-MEL-2 = test system: SK-MEL-2
CAKI-1 = test system: CAKI-1
Hs-578T = test system: Hs-578T
A549 = test system: A549
CCRF-CEM = test system: CCRF-CEM
SF-268 = test system: SF-268
M14 = test system: M14
SNB-19 = test system: SNB-19
Malme-3M = test system: Malme-3M
SF-295 = test system: SF-295
OVCAR-5 = test system: OVCAR-5
SN12C = test system: SN12C
NCI-H23 = test system: NCI-H23
TK-10 = test system: TK-10
MCF7 = test system: MCF7
SK-MEL-5 = test system: SK-MEL-5
MOLT-4 = test system: MOLT-4
MDA-MB-435 = test system: MDA-MB-435
KM12 = test system: KM12
SK-OV-3 = test system: SK-OV-3

Structure (SMILES) | GI50 (SK-MEL-2) | GI50 (CAKI-1) | GI50 (Hs-578T) | GI50 (A549) | GI50 (CCRF-CEM) | GI50 (SF-268) | GI50 (M14) | GI50 (SNB-19) | GI50 (Malme-3M) | GI50 (SF-295) | GI50 (OVCAR-5) | GI50 (SN12C) | GI50 (NCI-H23) | GI50 (TK-10) | GI50 (MCF7) | GI50 (SK-MEL-5) | GI50 (MOLT-4) | GI50 (MDA-MB-435) | GI50 (KM12) | GI50 (SK-OV-3)
COc1nc2c(c(=O)n1C)NC(C(O)C(O)CO)C=N2 (stereo not given) | > 10 µM (inactive) | > 10 µM (inactive) | > 10 µM (inactive) | > 10 µM (inactive) | > 10 µM (inactive) | > 10 µM (inactive) | > 10 µM (inactive) | > 10 µM (inactive) | > 10 µM (inactive) | > 10 µM (inactive) | > 10 µM (inactive) | > 10 µM (inactive) | > 10 µM (inactive) | > 10 µM (inactive) | > 10 µM (inactive) | > 10 µM (inactive) | > 10 µM (inactive) | > 10 µM (inactive) | > 10 µM (inactive) | > 10 µM (inactive)
N[C@H](C(=O)O)[C@@H]1CC(Br)=NO1 | > 91.8 µM (inactive) | 18.4 µM (inactive) | 8.95 µM (inactive) | 3.66 µM (inactive) | 14.1 µM (inactive) | 11.6 µM (inactive) | 11.5 µM (inactive) | 36.4 µM (inactive) | > 25.1 µM (inactive) | 6.28 µM (inactive) | 16.8 µM (inactive) | 38.3 µM (inactive) | > 35.7 µM (inactive) | 16 µM (inactive) | 3.42 µM (inactive) | 14.5 µM (inactive) | 22.6 µM (inactive) | 19.7 µM (inactive) | 10.6 µM (inactive) | 8.05 µM (inactive)
COc1ccc(Cl)cc1NC(=O)c1cccc([N+](=O)[O-])c1O | 4.17 µM (inactive) | 16.2 µM (inactive) | 17.5 µM (inactive) | 11.2 µM (inactive) | 16 µM (inactive) | 17.9 µM (inactive) | 24.4 µM (inactive) | 8.97 µM (inactive) | 4.97 µM (inactive) | 17.8 µM (inactive) | 27.8 µM (inactive) | 12.6 µM (inactive) | 10.4 µM (inactive) | 32.9 µM (inactive) | 20.9 µM (inactive) | 4 µM (inactive) | 16.8 µM (inactive) | 14.4 µM (inactive) | 19.5 µM (inactive) | 24.7 µM (inactive)
N=C(N)SC(c1ccccc1)c1ccccc1 | 15 µM (inactive) | 13.5 µM (inactive) | 27.1 µM (inactive) | 25.2 µM (inactive) | 10.5 µM (inactive) | 22.6 µM (inactive) | 11.4 µM (inactive) | 28.1 µM (inactive) | 18.6 µM (inactive) | 16.9 µM (inactive) | 14.2 µM (inactive) | 16 µM (inactive) | 13 µM (inactive) | 14.5 µM (inactive) | 15.4 µM (inactive) | 17.3 µM (inactive) | 15.7 µM (inactive) | 12.6 µM (inactive) | 16.2 µM (inactive) | 32.3 µM (inactive)
CC1=NOC2(C1)C(=O)Nc1ccccc12 (stereo not given) | > 100 µM (inactive) | 30.3 µM (inactive) | > 100 µM (inactive) | > 100 µM (inactive) | > 100 µM (inactive) | > 100 µM (inactive) | > 100 µM (inactive) | 40.6 µM (inactive) | > 100 µM (inactive) | > 100 µM (inactive) | > 100 µM (inactive) | > 100 µM (inactive) | > 100 µM (inactive) | > 100 µM (inactive) | 9.79 µM (inactive) | 60.5 µM (inactive) | > 100 µM (inactive) | > 100 µM (inactive) | > 100 µM (inactive) | > 100 µM (inactive)
COC(=O)c1sc(=S)sc1SCc1ccccc1CSc1sc(=S)sc1C(=O)OC | > 100 µM (inactive) | > 100 µM (inactive) | > 100 µM (inactive) | > 100 µM (inactive) | 27.5 µM (inactive) | > 100 µM (inactive) | > 100 µM (inactive) | 77.1 µM (inactive) | > 100 µM (inactive) | 58.9 µM (inactive) | > 100 µM (inactive) | > 100 µM (inactive) | > 100 µM (inactive) | > 100 µM (inactive) | > 100 µM (inactive) | > 100 µM (inactive) | > 100 µM (inactive) | > 100 µM (inactive) | > 100 µM (inactive) | 46.6 µM (inactive)
CN(C)CC1CCC/C(=C\c2ccc(Cl)c(Cl)c2)C1=O (stereo not given) | 6.52 µM (inactive) | 2.59 µM (inactive) | 2.99 µM (inactive) | 15.1 µM (inactive) | 0.843 µM (active) | 4.04 µM (inactive) | 3.83 µM (inactive) | 7.23 µM (inactive) | 4.42 µM (inactive) | 12.4 µM (inactive) | 21 µM (inactive) | 3.42 µM (inactive) | 8.45 µM (inactive) | 3.31 µM (inactive) | 1.64 µM (inactive) | 9.82 µM (inactive) | 1.44 µM (inactive) | 6.38 µM (inactive) | 1.84 µM (inactive) | 6.78 µM (inactive)
CN(CCCN1CCCC1)CCCN(C)C(=O)Cc1ccc(Cl)c(Cl)c1 | 13.5 µM (inactive) | 20.6 µM (inactive) | 5.85 µM (inactive) | 18.6 µM (inactive) | 6.85 µM (inactive) | 8.87 µM (inactive) | 5.47 µM (inactive) | 26.9 µM (inactive) | 18.3 µM (inactive) | 17.7 µM (inactive) | 29.4 µM (inactive) | 21 µM (inactive) | 21.2 µM (inactive) | 16.2 µM (inactive) | 16.6 µM (inactive) | 15.3 µM (inactive) | 13.2 µM (inactive) | 3.04 µM (inactive) | 18.7 µM (inactive) | 27.7 µM (inactive)
CN(C)c1ccc(/C=C(\NC(=O)c2ccccc2)C(=O)Nc2cccc(C(=O)NCCCO)c2)cc1 | > 100 µM (inactive) | > 100 µM (inactive) | > 100 µM (inactive) | > 100 µM (inactive) | > 100 µM (inactive) | > 100 µM (inactive) | > 100 µM (inactive) | > 100 µM (inactive) | > 100 µM (inactive) | > 100 µM (inactive) | > 100 µM (inactive) | > 100 µM (inactive) | > 100 µM (inactive) | > 100 µM (inactive) | > 100 µM (inactive) | > 100 µM (inactive) | > 100 µM (inactive) | > 100 µM (inactive) | > 100 µM (inactive) | > 100 µM (inactive)
O=C1CCC2c3ccccc3NCN12 (stereo not given) | > 100 µM (inactive) | > 100 µM (inactive) | > 100 µM (inactive) | > 100 µM (inactive) | > 100 µM (inactive) | > 100 µM (inactive) | > 100 µM (inactive) | > 100 µM (inactive) | > 100 µM (inactive) | > 100 µM (inactive) | > 100 µM (inactive) | > 100 µM (inactive) | > 100 µM (inactive) | > 100 µM (inactive) | > 100 µM (inactive) | > 100 µM (inactive) | > 100 µM (inactive) | > 100 µM (inactive) | > 100 µM (inactive) | > 100 µM (inactive)
O=c1c2cccnc2[nH]c2ccc3scnc3c12 | > 10 µM (inactive) | > 10 µM (inactive) | > 10 µM (inactive) | 3.96 µM (inactive) | 5.27 µM (inactive) | > 10 µM (inactive) | 8.07 µM (inactive) | > 10 µM (inactive) | > 10 µM (inactive) | > 10 µM (inactive) | > 10 µM (inactive) | 6.24 µM (inactive) | > 10 µM (inactive) | 4.86 µM (inactive) | > 10 µM (inactive) | 7.01 µM (inactive) | 4.34 µM (inactive) | 9.82 µM (inactive) | 6.7 µM (inactive) | > 10 µM (inactive)
COC(=O)/C(=C/c1ccc(OC)cc1)c1cc(OC)c(OC)c(OC)c1 | 3.18 µM (inactive) | 1.12 µM (inactive) | 0.957 µM (active) | 2.99 µM (inactive) | 1.39 µM (inactive) | 6.01 µM (inactive) | 1.06 µM (active) | 3.62 µM (inactive) | 1.2 µM (inactive) | 0.706 µM (active) | 14.9 µM (inactive) | 5.08 µM (inactive) | 2.84 µM (inactive) | 5.62 µM (inactive) | 0.604 µM (active) | 0.569 µM (active) | 1.44 µM (inactive) | 0.112 µM (active) | 0.521 µM (active) | 1.34 µM (inactive)
